Columns and labels:
[1] = PAMPA blood-brain barrier permeability assay (brain polar lipid extract); assay type: in vitro ADME; conditions: 7 h incubation, 100-500 uM, > 10*10^-6 cm/s = high permeability, read-out: Paap (PAMPA-BBB permeability)
Experimental: PAMPA assay was performed using a PAMPA filter plate (MAIPNTR10) coated with brain polar lipid extract (141101P) to evaluate blood-brain barrier (BBB) permeability of the compounds. The assay was performed with the help of the protocol provided by Merck Millipore on their official website and articles as cited.[62]^,[63] 5% of brain polar solution was used to coat the donor plate (15ul per well) by drying the plate in a fume hood. The acceptor plate was filled with 300ul of buffer (5% DMSO in PBS). The donor plate coated with brain polar solution was placed above the acceptor plate and different concentrations of Cdk5 inhibitor (100-500uM) dissolved in 5% DMSO were added to it (150ul per well). After 7 h of incubation, the absorbance was measured at broad spectrum 250–500 nm. […] For permeability, the Papp of the drugs was calculated.Paap = C ∗ -ln (1-[drugacceptor]/[Drugequilibrium]); C=VD∗VA/(VD + VA) ∗ area ∗ timePaap < 10∗10^−6 cm/s - Low permeability; Paap > 10∗10^−6 cm/s - high permeability

[2] = MTT cell toxicity assay in HepG2 cells; assay type: cell-based; conditions: human, all doses (25 to 100 μM)
Experimental: (§1) HEK293T, HepG2, and N2A cells were used in the study representing kidney, liver and neuronal cell lines respectively. The cells were cultured in DMEM supplemented with 10% fetal bovine serum and antibiotics at 37°C under 5% CO2. The cells were tested negative for mycoplasma.
(§2) To evaluate the compound toxicity for the Cdk5 inhibitors, an MTT assay was performed in HEK293T, HepG2, and N2A cells at varying concentrations. Six hours after cell seeding, the compounds were added in different amounts, and the cells were harvested after 24 h for further analysis. N2A cells were transfected using Lipofectamine-3000 reagent, co-transfecting with plasmids encoding Cdk5/p35 and Cdk5/p25 for 12 h, followed by inhibitor treatment to assess their effects in the cell culture system. The concentrations of each plasmids used was 1 μg, total of 3 μg per well for 6 well plates.

[3] = MTT cell toxicity assay in HEK293T cells; assay type: cell-based; conditions: human, all doses (25 to 100 μM)
Experimental: as §1, §2

Cdk2/CylA2 = experiment: Specificity kinase assay, Cdk2 with cyclin A2; assay type: biochemical; conditions: inhibitor 0-100 nM
Excerpt: To assess the specificity of inhibitors BLINK11 and BLINK15 against CDK5, we investigated their effects on different Cdks, i.e., Cdk1, Cdk2, and Cdk9 that share structural homology with CDK5. […] However, these IC50 values were higher than those observed for CDK5/p35 and CDK5/p25. […] Overall, BLINK11 and BLINK15 can selectively target CDK5 at lower concentrations. […]
IC50 of all the kinases for both BLINK11 and BLINK15 inhibitors.

HFD-fed mice [4] = experiment: Morris water maze (MWM) in HFD mice; assay type: in vivo; conditions: i.p., both doses 20 and 40 mg/kg/day, 20 days
Experimental: The MWM test was conducted to evaluate memory and spatial learning in mice, using visual cues placed on the walls of a water tank. For five consecutive days, the mice were trained in the water maze, with each session involving the release of the mice from various starting points and the task of locating a hidden platform within the maze. Each day, the mice underwent four trials, following the established protocol by Charles V. Vorhees (2006). The time taken (latency) for each mouse to find the platform was measured and recorded throughout the training period.
On the sixth day, a probe test was conducted to assess reference memory. The hidden platform was removed, and the mice’s behavior was observed as they navigated the maze. The time spent in the target quadrant and the time taken to reach the former platform location were recorded. This probing phase aimed to evaluate the mice’s retention of the spatial information and memory acquired during the training sessions. The MWM test evaluated memory and spatial learning in mice using visual cues in a water tank. Over five days, mice were trained to find a platform within the tank, undergoing four trials daily as per Charles V. Vorhees' protocol. On day six, a probing experiment assessed reference memory. […] Time spent and latency to reach the target quadrant were recorded. […]

HFD-fed mice [5] = experiment: Body weight in HFD-fed T2D mice; assay type: in vivo; conditions: i.p.
Experimental: The HFD-fed mice model received intraperitoneal injections of the compounds BLINK11 and BLINK15 at doses of 20 mg/kg/day and 40 mg/kg/day for a total of 20 days in the third month of HFD feeding. The body weight was measured at the beginning of the drug therapy, on day 0, and then again on days 10 and 20, as indicated in Figure 4A.
Two groups of four-week-old male C57BL/6J mice were established. One group (n = 8) was fed a standard laboratory mouse chow diet (Protein: 20% kcal, Carbohydrate: 70% kcal, Fat: 10% kcal), while the other group (n = 40) was placed on a HFD (Protein: 20% kcal, Carbohydrate: 20% kcal, Fat: 60% kcal).[23] Body weight, ITT, and GTT were assessed. Mice were treated with BLINK11 and BLINK15 inhibitors at 20 mg/kg and 40 mg/kg doses for 20 days. The study included six groups: Control, HFD, HFD_BLINK11_20, HFD_BLINK11_40, HFD_BLINK15_20, and HFD_BLINK15_40. […] The control used in the study are vehicle treated-control group (5% DMSO, 0.1% tween 20 and 1X PBS). The doses of 20 mg/kg and 40 mg/kg body weight were selected based on evidence from previous studies evaluating the efficacy and safety of similar kinase inhibitors.[45]^,[46]^,[47] […] The 40 mg/kg dose was selected to assess dose-dependent efficacy and represents the upper limit of tolerability based on pharmacokinetic and toxicity data.

Cdk5/p25 = Cdk5/p25 (Homo sapiens, UniProt Q00535); experiment: Cdk5 kinase assay (ADP-Glo) with Cdk5/p25 complex; assay type: biochemical; conditions: 10 μM ATP, histone substrate, inhibitor 0-100 nM
Chain of Cdk5/p25 (Q00535 whole entry, species assumed): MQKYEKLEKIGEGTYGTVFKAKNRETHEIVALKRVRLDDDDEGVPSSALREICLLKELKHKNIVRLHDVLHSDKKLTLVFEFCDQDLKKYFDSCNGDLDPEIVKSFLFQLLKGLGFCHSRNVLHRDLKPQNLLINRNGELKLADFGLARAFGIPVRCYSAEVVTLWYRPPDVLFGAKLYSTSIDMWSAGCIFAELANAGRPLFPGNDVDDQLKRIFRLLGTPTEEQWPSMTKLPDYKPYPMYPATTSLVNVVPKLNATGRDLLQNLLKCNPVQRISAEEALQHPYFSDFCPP
Chain of Cdk5/p25 (Q15078 99-307 partner limits assumed, species assumed): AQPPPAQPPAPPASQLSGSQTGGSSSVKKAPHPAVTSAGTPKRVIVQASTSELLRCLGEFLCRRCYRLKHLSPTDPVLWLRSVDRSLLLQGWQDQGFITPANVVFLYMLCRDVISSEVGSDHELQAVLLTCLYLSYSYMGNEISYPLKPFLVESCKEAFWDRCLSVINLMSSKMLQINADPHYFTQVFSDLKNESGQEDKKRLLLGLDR
Experimental: The test tube Cdk5 Kinase assay was performed utilizing Cdk5/p35 and Cdk5/p25 complexes as kinases, following the modified procedure outlined in a previous study,[52] using a Promega ADP-GloTM Kinase Assay kit. The reaction was carried out with 10 μM ATP and 2 μg of histone as the substrate for Cdk5 complexes. To study the inhibition patterns, 19 Cdk5 inhibitors (BLINK1-19) identified through molecular docking were added to the Cdk5 kinase reaction in increasing concentrations ranging from 0 to 100 nM. The IC50 (half-maximal inhibitory concentration) values of all the inhibitors were calculated based on Log(inhibitor) vs. normalized response using GraphPad software.

Papp at 7 h [1]	Inhibition of Cdk2 (with cyclin A2) (Cdk2/CylA2)	IC50 (Cdk5/p25)	Compound	viability at 24 h [2]	viability at 24 h [3]	Water maze time to reach the platform (spatial learning and memory) (HFD-fed mice [4])	Body weight gain caused by HFD (HFD-fed mice [5]; 40 mg/kg/day, 20 days (only the higher dose))	Body weight gain caused by HFD (HFD-fed mice [5]; both dosages 20 and 40 mg/kg/day, 20 days)
> 10 ×10⁻⁶ cm/s	minimal inhibition	12.1 nM	COc1ccc(C(=O)C[C@@]2(O)C(=O)N(Cc3ccccc3)c3ccc(Br)cc32)cc1[N+](=O)[O-] [BLINK15]	> 50%	> 50%	rescue behavior	significant recovery	
> 10 ×10⁻⁶ cm/s	minimal inhibition	14.7 nM	O=C(COc1ccccc1C(=O)Nc1cccc(Cl)c1Cl)Nc1ccc(N2CCOCC2)c(Cl)c1 [BLINK11, 2-(2-((3-chloro-4-morpholinophenyl)amino)-2-oxoethoxy)-N-(2,3-dichlorophenyl)benzamide]	> 50%	> 50%	rescue behavior		rescued from the gain in body weight

Reference: publication PMC11986975, “A Cdk5 inhibitor restores cognitive function and alleviates type 2 diabetes in mice” (iScience, 2025)
